Results published in patent publication US12129265B2, “Therapeutic agents and uses thereof” (Ankh Life Sciences Limited, priority 2020, dated 2024).

Experiments:
Experiment in all cases: CellTiter-Glo in vitro cell proliferation assay, Example 8
Type in all cases: cell-based, Human
A2780 cells = conditions: A2780, Ovarian; read-out: Mean IC50
Description: (§1) In this Example, in vitro cell proliferation assays were performed using: (1) Human Myeloma tumor cell lines; (2) Human Lymphoma tumor cell lines; (3) Solid Human tumor cell lines; and (4) Parental, Lenalidomide resistant and Bortezomib resistant Jeko-1 Mantle cell Lymphoma tumor cell lines. The compounds tested were three diharmaline compounds, namely the 518B562 (or simply 562), 560, and 561 compounds. In addition, a monoharmaline product designated as 518F014 was also tested. This monoharmaline product had the following structure:
(§2) Each proliferation assay was carried out as follows. The test cells were plated in growth media using a 384-well microtiter plate at 50 μL volume. The cells were incubated for 24 hours at 37° C. in a humidified incubator. After 24 hours of incubation, the test compounds were added to the test wells in DSMO solvent, at concentrations ranging from 0.0075-100 μM. Control wells received equal volumes of DSMO, without compound. Following drugging, the cells were incubated for 72 hours at 37° C. in a humidified incubator. After this exposure, 100 μL of a 1:1 mixture of sterile water and CellTiter-Glo® reagent (Promega) was added to each well. The plates were then incubated for 60 minutes at room temperature, followed by recording the luminescence value of each well using a luminometer as a measure of cell proliferation.

A2780CP cells = conditions: Ovarian, read-out: Mean IC50
Description: as §1, §2

A498 cells = conditions: A498, RCC; read-out: Mean IC50
Description: as §1, §2

AN3CA cells = conditions: Endometrial, read-out: Mean IC50
Description: as §1, §2

ASPC-1 cells = conditions: ASPC-1, Pancreatic; read-out: Mean IC50
Description: as §1, §2

BxPC-3 cells = conditions: BxPC-3, Pancreatic; read-out: Mean IC50
Description: as §1, §2

DOHH-2 cells = conditions: DoHH-2, GCB-DLBCL; read-out: Mean IC50
Description: as §1, §2

FaDu cells = conditions: H&N - SC, read-out: Mean IC50
Description: as §1, §2

H1650 (EGFR mut) cells = conditions: NSCLC, read-out: Mean IC50
Description: as §1, §2

H1975 (EGFR mut) cells = conditions: NSCLC, read-out: Mean IC50
Description: as §1, §2

HCC70 cells = conditions: HCC70, TNBC; read-out: Mean IC50
Description: as §1, §2

HEC-1a cells = conditions: Endometrial, read-out: Mean IC50
Description: as §1, §2

JIM1 cells = conditions: JIM1, HMCL; read-out: Mean IC50
Description: as §1, §2

KMM-1 cells = conditions: KMM-1, HMCL-A; read-out: Mean IC50
Description: as §1, §2

KMS-34 cells = conditions: KMS-34, HMCL-B; read-out: Mean IC50
Description: as §1, §2

L363 cells = conditions: L363, PCL/MM; read-out: Mean IC50
Description: as §1, §2

MDA-MB-231 cells = conditions: MDA-MB-231, TNBC; read-out: Mean IC50
Description: as §1, §2

MDA-MB-468 cells = conditions: MDA-MB-468, TNBC; read-out: Mean IC50
Description: as §1, §2

MIA PaCa-2 cells = conditions: MIA PaCa-2, Pancreatic; read-out: Mean IC50
Description: as §1, §2

MOLP-8 cells = conditions: MOLP-8, MM IgD; read-out: Mean IC50
Description: as §1, §2

OCI-LY3 cells = conditions: OCI-LY3, ABC-DLBCL; read-out: Mean IC50
Description: as §1, §2

SiHA cells = conditions: Cervical - SC, read-out: Mean IC50
Description: as §1, §2

RPMI-8226 cells = conditions: RPMI-8226, HMM
Description: as §2
In this example, different cell lines were subjected to in vitro cell proliferation assays as described in Example 8. In particular, the cell lines are identified in the following Table 17, and the tissue types were: Pancreatic; Endometrial; Triple-Negative Breast Cancer (TNBC); Non-Small-Cell Lung Carcinoma (NSCLC); Ovarian; Renal Cell Carcinoma (RCC); Cervical-Squamous Cell; […] (H&N-Squamous Cell); Germinal Center B Cell-Like Novo Diffuse Large B-Cell Lymphoma (GCB-DLBCL); Activated B-Cell—Diffuse Large B Cell Lymphoma (ABC-DLBCL); Human Myeloma; Human Myeloma Cell Line Lymphocyte-Like; Human Myeloma Cell Line Lymphocyte-Like Myeloma Pleural Effusion Infiltration; Human Multiple Myeloma; Plasma Cell Leukemia/Multiple Myeloma Epstein-Barr Nuclear Antigen-Negative (EBNA-Negative) and to Express mRNA for Proto-Oncogene B-Cell Lymphoma 2 (BCL2); Multiple Myeloma from Peripheral Blood Type IgD Lmabda.

COc1ccc2c3c([nH]c2c1)C(CC(CC1=NCCc2c1[nH]c1cc(OC)ccc21)c1cccc(F)c1)=NCC3 [compound 20]
IC50 (A2780 cells): 3.75 µM | IC50 (A2780CP cells): 5.06 µM | IC50 (A498 cells): 11.3 µM | IC50 (AN3CA cells): 1.86 µM | IC50 (ASPC-1 cells): 3.66 µM | IC50 (BxPC-3 cells): 2.25 µM | IC50 (DOHH-2 cells): 1.88 µM | IC50 (FaDu cells): 4.05 µM | IC50 (H1650 (EGFR mut) cells): 4.44 µM | IC50 (H1975 (EGFR mut) cells): 6.41 µM | IC50 (HCC70 cells): 6.35 µM | IC50 (HEC-1a cells): 11 µM | IC50 (JIM1 cells): 4.28 µM | IC50 (KMM-1 cells): 3.66 µM | IC50 (KMS-34 cells): 3.26 µM | IC50 (L363 cells): 3.89 µM | IC50 (MDA-MB-231 cells): 4.71 µM | IC50 (MDA-MB-468 cells): 5.12 µM | IC50 (MIA PaCa-2 cells): 2.72 µM | IC50 (MOLP-8 cells): 2.28 µM | IC50 (OCI-LY3 cells): 3.85 µM | IC50 (SiHA cells): 6.73 µM | IC50 (RPMI-8226 cells): 1.27 µM

COc1ccc2c3c([nH]c2c1)C(CC(CC1=NCCc2c1[nH]c1cc(OC)ccc21)c1cc(F)cc(F)c1)=NCC3 [compound 22]
IC50 (A2780 cells): 9.16 µM | IC50 (A2780CP cells): 9.3 µM | IC50 (A498 cells): 21.6 µM | IC50 (AN3CA cells): 4.15 µM | IC50 (ASPC-1 cells): 8.61 µM | IC50 (BxPC-3 cells): 5.37 µM | IC50 (DOHH-2 cells): 4.26 µM | IC50 (FaDu cells): 11.1 µM | IC50 (H1650 (EGFR mut) cells): 11.1 µM | IC50 (H1975 (EGFR mut) cells): 11.5 µM | IC50 (HCC70 cells): 13.2 µM | IC50 (HEC-1a cells): 11.8 µM | IC50 (JIM1 cells): 7.35 µM | IC50 (KMM-1 cells): 6.21 µM | IC50 (KMS-34 cells): 3.9 µM | IC50 (L363 cells): 6.12 µM | IC50 (MDA-MB-231 cells): 7.12 µM | IC50 (MDA-MB-468 cells): 11.5 µM | IC50 (MIA PaCa-2 cells): 5.93 µM | IC50 (MOLP-8 cells): 3.83 µM | IC50 (OCI-LY3 cells): 9.73 µM | IC50 (SiHA cells): 11.7 µM | IC50 (RPMI-8226 cells): 2.06 µM

COc1ccc2c3c([nH]c2c1)C(CC(CC1=NCCc2c1[nH]c1cc(OC)ccc21)c1cc(OC)c(O)c([N+](=O)[O-])c1)=NCC3 [compound 5]
IC50 (A2780 cells): 24.1 µM | IC50 (A2780CP cells): 24.6 µM | IC50 (A498 cells): 22.8 µM | IC50 (AN3CA cells): 11.4 µM | IC50 (ASPC-1 cells): 15.7 µM | IC50 (BxPC-3 cells): 21.2 µM | IC50 (DOHH-2 cells): 9.31 µM | IC50 (FaDu cells): 22.3 µM | IC50 (H1650 (EGFR mut) cells): 23.4 µM | IC50 (H1975 (EGFR mut) cells): 28.1 µM | IC50 (HCC70 cells): 15.1 µM | IC50 (HEC-1a cells): 27 µM | IC50 (JIM1 cells): 17.7 µM | IC50 (KMM-1 cells): 20.3 µM | IC50 (KMS-34 cells): 17.4 µM | IC50 (L363 cells): 22.2 µM | IC50 (MDA-MB-231 cells): 23.7 µM | IC50 (MDA-MB-468 cells): 14.7 µM | IC50 (MIA PaCa-2 cells): 19.9 µM | IC50 (MOLP-8 cells): 14.4 µM | IC50 (OCI-LY3 cells): 12.3 µM | IC50 (SiHA cells): 36.9 µM | IC50 (RPMI-8226 cells): 19.3 µM

COc1ccc2c3c([nH]c2c1)C(CC(CC1=NCCc2c1[nH]c1cc(OC)ccc21)c1ccc(F)cc1)=NCC3 [compound 21]
IC50 (A2780 cells): 7.51 µM | IC50 (A2780CP cells): 9.87 µM | IC50 (A498 cells): 11.7 µM | IC50 (AN3CA cells): 3.93 µM | IC50 (ASPC-1 cells): 5.11 µM | IC50 (BxPC-3 cells): 3.58 µM | IC50 (DOHH-2 cells): 3.61 µM | IC50 (FaDu cells): 6.26 µM | IC50 (H1650 (EGFR mut) cells): 8.22 µM | IC50 (H1975 (EGFR mut) cells): 11.4 µM | IC50 (HCC70 cells): 10.9 µM | IC50 (HEC-1a cells): 11.7 µM | IC50 (JIM1 cells): 5.55 µM | IC50 (KMM-1 cells): 6.41 µM | IC50 (KMS-34 cells): 3.82 µM | IC50 (L363 cells): 5.15 µM | IC50 (MDA-MB-231 cells): 5.95 µM | IC50 (MDA-MB-468 cells): 6.74 µM | IC50 (MIA PaCa-2 cells): 4.41 µM | IC50 (MOLP-8 cells): 3.69 µM | IC50 (OCI-LY3 cells): 4.94 µM | IC50 (SiHA cells): 11.5 µM | IC50 (RPMI-8226 cells): 3.56 µM

COc1ccc2c3c([nH]c2c1)C(CC(CC1=NCCc2c1[nH]c1cc(OC)ccc21)c1ccc(OC)c(O)c1I)=NCC3 [compound 14]
IC50 (A2780 cells): 21.2 µM | IC50 (A2780CP cells): 24.3 µM | IC50 (A498 cells): 54.7 µM | IC50 (AN3CA cells): 9.05 µM | IC50 (ASPC-1 cells): 53.1 µM | IC50 (BxPC-3 cells): 21 µM | IC50 (DOHH-2 cells): 7.9 µM | IC50 (FaDu cells): 19.2 µM | IC50 (H1650 (EGFR mut) cells): 25.4 µM | IC50 (H1975 (EGFR mut) cells): 33.6 µM | IC50 (HCC70 cells): 33.3 µM | IC50 (HEC-1a cells): 28.7 µM | IC50 (JIM1 cells): 17.9 µM | IC50 (KMM-1 cells): 23.9 µM | IC50 (KMS-34 cells): 14.6 µM | IC50 (L363 cells): 23.4 µM | IC50 (MDA-MB-231 cells): 32.4 µM | IC50 (MDA-MB-468 cells): 16.9 µM | IC50 (MIA PaCa-2 cells): 22.2 µM | IC50 (MOLP-8 cells): 10.1 µM | IC50 (OCI-LY3 cells): 15.4 µM | IC50 (SiHA cells): 51.9 µM | IC50 (RPMI-8226 cells): 7.53 µM
